Experimental data reported in ChEMBL document CHEMBL3217630, “Intramolecular hydrogen bonding to improve membrane permeability and absorption in beyond rule of five chemical space” (Medchemcomm, 2011).

Tests used:
[1] = Fraction of the dose absorbed in rat; assay type: ADME, organism-based; conditions: in vivo, read-out: Fabs
Rattus norvegicus = experiment: (§1) Oral bioavailability in rat; assay type: ADME, organism-based; conditions: in vivo
[2] = Apparent permeability across apical to basolateral side of MDCK cells; assay type: ADME, cell-based, Canis lupus familiaris; conditions: dog
[3] = Oral bioavailability in human; assay type: ADME, organism-based; conditions: in vivo
[4] = as §1; assay type: ADME, organism-based; conditions: in vivo

| Fa [1] [%] | F (Rattus norvegicus) [%] | Papp A→B [2] [×10⁻⁶ cm/s] | bioavailability [3] [%] | bioavailability [4] [%] | Compound |
| --- | --- | --- | --- | --- | --- |
| 0.5 | 0.1 | 1 | 3 |  | COCCCOc1cc(C[C@@H](C[C@H](N)[C@@H](O)C[C@H](C(=O)NCC(C)(C)C(N)=O)C(C)C)C(C)C)ccc1OC |
| 54 |  | 35 | 60 | 10 | COC(=O)N[C@H](C(=O)N[C@@H](Cc1ccccc1)[C@@H](O)CN(Cc1ccc(-c2ccccn2)cc1)NC(=O)[C@@H](NC(=O)OC)C(C)(C)C)C(C)(C)C [ATAZANAVIR] |
